From EP0492930A2, “Transdermal delivery of dobutamine” (ELI LILLY AND COMPANY, priority 1990, dated 1992)

Test system: male beagle dogs
Experiment: In vivo transdermal delivery: cardiac contractility change in anesthetized dogs
Procedure: To corroborate the in vitro results obtained using formulations of the present invention, the ability of the present formulation to provide transdermal delivery of dobutamine lactobionate through the skin of a living dog was also studied.
Two male beagle dogs were anesthetized with 100 mg/kg of sodium phenobarbitol and prepared for monitoring of electrocardiogram, contractile tension, heart rate and mean arterial pressure. Dobutamine lactobionate was administered by an i.v. bolus (4, 8 and 16 mcg/kg). After each animal's response returned to baseline, 1.0 ml of a formulation containing 218.9 mg of dobutamine lactobionate (100 mg equivalents of dobutamine free base), 2.0 mg of sodium bisulfite, 10.0 mg of n-decyl methyl sulfoxide in 1 ml of water was applied to a 25 cm² shaved area in the groin-abdominal region of each dog. Cardiac contractility changes in each dog were then monitored for the next 3 to 5 hours.
Column 2 discloses the time elapsed from the time the formulation was applied and Column 3 discloses the percent change in contractility (from baseline) observed at the time value shown in Column 2.

## CC(CCc1ccc(O)cc1)NCCc1ccc(O)c(O)c1 (racemic) [dobutamine lactobionate, (±)-N-[3-(4-hydroxyphenyl)-1-methylpropyl]-2-(3,4-dihydroxyphenyl)ethylamine]
Method I (applied directly to skin), 20 min
  % Change In Contractility: 30%
Method I (applied directly to skin), 30 min
  % Change In Contractility: 35%
Method I (applied directly to skin), 60 min
  % Change In Contractility: 48%
Method I (applied directly to skin), 90 min
  % Change In Contractility: 21%
Method I (applied directly to skin), 120 min
  % Change In Contractility: 16%
Method I (applied directly to skin), 180 min
  % Change In Contractility: 0%
Method I (applied directly to skin, covered with plastic film), 10 min, 1.0 ml formulation (218.9 mg lactobionate, 10.0 mg n-decyl methyl sulfoxide) on 25 cm² shaved skin, change from baseline
  % Change In Contractility: 16%
Method II (cellulose triacetate polymer patch), 10 min, 1.0 ml formulation (218.9 mg lactobionate, 10.0 mg n-decyl methyl sulfoxide), change from baseline
  % Change In Contractility: 10%
Method II (patch), 20 min
  % Change In Contractility: 26%
Method II (patch), 30 min
  % Change In Contractility: 24%
Method II (patch), 60 min
  % Change In Contractility: 36%
Method II (patch), 90 min
  % Change In Contractility: 41%
Method II (patch), 120 min
  % Change In Contractility: 33%
Method II (patch), 150 min
  % Change In Contractility: 25%
Method II (patch), 180 min
  % Change In Contractility: 27%
Method II (patch), 210 min
  % Change In Contractility: 22%
Method II (patch), 240 min
  % Change In Contractility: 9%
Method II (patch), 270 min
  % Change In Contractility: 9%
Method II (patch), 300 min
  % Change In Contractility: 11%
